For assay [1], the target named is Bruton’s tyrosine kinase (BTK) (Homo sapiens, UniProt Q06187). In words: ELISA kinase activity assay with purchased BTK protein (MilliporeSigma #[…]-552). It is filed as biochemical.
The target in assay [2] is T1, interleukin-2-inducible T cell kinase (ITK) (Homo sapiens, UniProt Q08881).
T1 sequence (Q08881 1-620): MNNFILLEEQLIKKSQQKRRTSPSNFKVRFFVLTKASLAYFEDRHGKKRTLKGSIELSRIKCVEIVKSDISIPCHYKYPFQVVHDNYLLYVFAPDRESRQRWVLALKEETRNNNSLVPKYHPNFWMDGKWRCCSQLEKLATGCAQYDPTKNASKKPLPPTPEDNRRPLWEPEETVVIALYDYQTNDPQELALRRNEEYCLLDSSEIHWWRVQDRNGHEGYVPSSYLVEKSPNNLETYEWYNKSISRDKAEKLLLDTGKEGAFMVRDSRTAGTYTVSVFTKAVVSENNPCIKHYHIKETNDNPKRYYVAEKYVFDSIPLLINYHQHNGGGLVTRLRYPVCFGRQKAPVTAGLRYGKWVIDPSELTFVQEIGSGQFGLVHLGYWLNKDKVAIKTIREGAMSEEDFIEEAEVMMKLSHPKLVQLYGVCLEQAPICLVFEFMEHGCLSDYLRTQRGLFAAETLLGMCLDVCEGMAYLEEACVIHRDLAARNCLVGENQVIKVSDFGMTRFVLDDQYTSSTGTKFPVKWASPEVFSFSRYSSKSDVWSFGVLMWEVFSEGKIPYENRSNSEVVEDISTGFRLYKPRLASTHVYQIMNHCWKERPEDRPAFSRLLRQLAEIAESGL
In words: ELISA kinase activity assay with purchased ITK protein (MilliporeSigma #[…]-660). It is filed as biochemical. In general terms: An ELISA detects its analyte on a solid surface through an enzyme-linked reagent.

Drawing on publication PMC9799096, “ASK120067 potently suppresses B-cell or T-cell malignancies in vitro and in vivo by inhibiting BTK and ITK” (Frontiers in Pharmacology, 2022), this text covers IC50 for 1 compound.

The term IC50 denotes the concentration needed to halve the response being measured. Lower therefore signals greater potency in that assay.

Chain of Bruton’s tyrosine kinase (BTK) (Q06187 2-659): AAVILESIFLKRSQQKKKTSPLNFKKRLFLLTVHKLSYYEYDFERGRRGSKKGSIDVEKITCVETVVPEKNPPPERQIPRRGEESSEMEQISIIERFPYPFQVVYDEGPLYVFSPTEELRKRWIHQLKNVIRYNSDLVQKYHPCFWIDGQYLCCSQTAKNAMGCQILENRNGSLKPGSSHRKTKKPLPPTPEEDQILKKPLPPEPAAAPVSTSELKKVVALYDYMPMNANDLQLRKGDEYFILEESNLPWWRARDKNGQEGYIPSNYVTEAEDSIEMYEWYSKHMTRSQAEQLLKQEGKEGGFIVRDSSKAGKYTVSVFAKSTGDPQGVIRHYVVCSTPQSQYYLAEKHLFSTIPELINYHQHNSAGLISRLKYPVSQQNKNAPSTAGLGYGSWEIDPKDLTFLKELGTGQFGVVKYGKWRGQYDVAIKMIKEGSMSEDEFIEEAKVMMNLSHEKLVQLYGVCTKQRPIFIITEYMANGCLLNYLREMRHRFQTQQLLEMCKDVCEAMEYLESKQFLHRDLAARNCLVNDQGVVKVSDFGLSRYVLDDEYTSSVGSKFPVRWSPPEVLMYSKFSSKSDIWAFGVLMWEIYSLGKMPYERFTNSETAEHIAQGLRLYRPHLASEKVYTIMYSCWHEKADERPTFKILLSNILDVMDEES

For `C=CC(=O)Nc1cc(Nc2ncc(Cl)c(Nc3ccc4ccccc4c3)n2)c(OC)cc1N(C)CCN(C)C` [ASK120067], the IC50 in assay [1] was 2.1 nM; in assay [2], 0.4 nM.
